The text below walks through data of patent US9682141B2, “Combination of kinase inhibitors and uses thereof” (INTELLIKINE LLC, priority 2011, dated 2017).

pIC50: −log10 of the molar value. Read-outs that look alike come from different tables or passages of the source.

Common to all, as to format: biochemical
The target of one assay is PI3K γ (Homo sapiens (Human), UniProt P48736). Kind of assay: PI 3-Kinase (human) HTRF assay, p110γ. On the technique in general: TR-FRET usually uses a lanthanide donor and a delayed reading to cut background.
Assay [1] can be described thus: PI 3-Kinase (human) HTRF assay, p110δ/p85α. The settings on record: read-out: PI3K γ IC50.
The next assay has as its target PI3K β (Homo sapiens (Human), UniProt P42338). Kind of assay: PI 3-Kinase (human) HTRF assay, p110β/p85α.
The next assay deals with PI3K α (Homo sapiens (Human), UniProt P42336). In words: PI 3-Kinase (human) HTRF assay, p110α/p85α.
Sequence of PI3K α (P42336 whole entry): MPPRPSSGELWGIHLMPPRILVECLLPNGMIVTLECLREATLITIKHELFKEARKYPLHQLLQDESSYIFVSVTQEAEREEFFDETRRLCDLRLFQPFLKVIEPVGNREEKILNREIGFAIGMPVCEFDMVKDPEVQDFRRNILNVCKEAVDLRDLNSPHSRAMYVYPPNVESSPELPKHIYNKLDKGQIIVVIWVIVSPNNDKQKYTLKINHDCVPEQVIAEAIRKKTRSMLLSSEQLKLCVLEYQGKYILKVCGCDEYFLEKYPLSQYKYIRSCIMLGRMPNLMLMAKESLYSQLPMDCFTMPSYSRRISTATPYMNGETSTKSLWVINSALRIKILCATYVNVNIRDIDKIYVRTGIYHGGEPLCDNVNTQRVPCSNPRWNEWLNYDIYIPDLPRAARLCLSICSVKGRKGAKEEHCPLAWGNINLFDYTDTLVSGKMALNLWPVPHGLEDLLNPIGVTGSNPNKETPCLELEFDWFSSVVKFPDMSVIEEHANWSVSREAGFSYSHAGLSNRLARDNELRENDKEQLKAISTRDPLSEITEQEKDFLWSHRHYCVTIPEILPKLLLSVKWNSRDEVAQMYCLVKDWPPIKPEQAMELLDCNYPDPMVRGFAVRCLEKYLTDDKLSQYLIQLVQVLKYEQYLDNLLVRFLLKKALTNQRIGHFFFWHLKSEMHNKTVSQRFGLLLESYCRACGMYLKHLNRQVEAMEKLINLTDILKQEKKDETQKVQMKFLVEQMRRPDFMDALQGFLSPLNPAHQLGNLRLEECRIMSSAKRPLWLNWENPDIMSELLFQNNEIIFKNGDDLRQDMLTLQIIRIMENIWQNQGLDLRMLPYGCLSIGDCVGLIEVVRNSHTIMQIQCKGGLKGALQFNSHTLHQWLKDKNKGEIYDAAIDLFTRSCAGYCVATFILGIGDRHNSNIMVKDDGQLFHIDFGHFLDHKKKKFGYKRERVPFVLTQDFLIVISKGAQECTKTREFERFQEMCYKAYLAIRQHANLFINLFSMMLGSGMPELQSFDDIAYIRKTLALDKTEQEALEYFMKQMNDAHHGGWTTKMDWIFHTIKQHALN
Sequence of PI3K α (P27986 whole entry partner): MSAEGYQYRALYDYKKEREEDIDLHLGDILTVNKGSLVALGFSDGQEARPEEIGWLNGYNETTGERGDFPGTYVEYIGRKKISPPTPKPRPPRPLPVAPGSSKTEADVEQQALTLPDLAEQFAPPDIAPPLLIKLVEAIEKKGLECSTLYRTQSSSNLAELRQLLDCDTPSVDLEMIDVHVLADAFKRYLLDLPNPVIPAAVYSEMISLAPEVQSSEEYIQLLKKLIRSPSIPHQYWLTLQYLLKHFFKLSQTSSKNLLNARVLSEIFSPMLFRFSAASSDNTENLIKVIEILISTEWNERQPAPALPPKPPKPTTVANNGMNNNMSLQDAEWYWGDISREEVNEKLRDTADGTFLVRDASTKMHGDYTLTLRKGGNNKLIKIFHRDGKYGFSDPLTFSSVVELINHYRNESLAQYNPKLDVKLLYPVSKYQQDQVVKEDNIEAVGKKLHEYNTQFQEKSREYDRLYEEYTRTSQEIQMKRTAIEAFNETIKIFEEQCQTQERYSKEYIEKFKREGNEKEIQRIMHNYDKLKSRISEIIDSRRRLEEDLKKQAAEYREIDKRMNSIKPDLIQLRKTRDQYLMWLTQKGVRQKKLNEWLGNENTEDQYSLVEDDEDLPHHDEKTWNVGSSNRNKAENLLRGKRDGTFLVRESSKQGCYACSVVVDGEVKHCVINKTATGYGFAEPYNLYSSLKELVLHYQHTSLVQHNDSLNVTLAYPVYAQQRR

Sequence of PI3K β (P42338 whole entry): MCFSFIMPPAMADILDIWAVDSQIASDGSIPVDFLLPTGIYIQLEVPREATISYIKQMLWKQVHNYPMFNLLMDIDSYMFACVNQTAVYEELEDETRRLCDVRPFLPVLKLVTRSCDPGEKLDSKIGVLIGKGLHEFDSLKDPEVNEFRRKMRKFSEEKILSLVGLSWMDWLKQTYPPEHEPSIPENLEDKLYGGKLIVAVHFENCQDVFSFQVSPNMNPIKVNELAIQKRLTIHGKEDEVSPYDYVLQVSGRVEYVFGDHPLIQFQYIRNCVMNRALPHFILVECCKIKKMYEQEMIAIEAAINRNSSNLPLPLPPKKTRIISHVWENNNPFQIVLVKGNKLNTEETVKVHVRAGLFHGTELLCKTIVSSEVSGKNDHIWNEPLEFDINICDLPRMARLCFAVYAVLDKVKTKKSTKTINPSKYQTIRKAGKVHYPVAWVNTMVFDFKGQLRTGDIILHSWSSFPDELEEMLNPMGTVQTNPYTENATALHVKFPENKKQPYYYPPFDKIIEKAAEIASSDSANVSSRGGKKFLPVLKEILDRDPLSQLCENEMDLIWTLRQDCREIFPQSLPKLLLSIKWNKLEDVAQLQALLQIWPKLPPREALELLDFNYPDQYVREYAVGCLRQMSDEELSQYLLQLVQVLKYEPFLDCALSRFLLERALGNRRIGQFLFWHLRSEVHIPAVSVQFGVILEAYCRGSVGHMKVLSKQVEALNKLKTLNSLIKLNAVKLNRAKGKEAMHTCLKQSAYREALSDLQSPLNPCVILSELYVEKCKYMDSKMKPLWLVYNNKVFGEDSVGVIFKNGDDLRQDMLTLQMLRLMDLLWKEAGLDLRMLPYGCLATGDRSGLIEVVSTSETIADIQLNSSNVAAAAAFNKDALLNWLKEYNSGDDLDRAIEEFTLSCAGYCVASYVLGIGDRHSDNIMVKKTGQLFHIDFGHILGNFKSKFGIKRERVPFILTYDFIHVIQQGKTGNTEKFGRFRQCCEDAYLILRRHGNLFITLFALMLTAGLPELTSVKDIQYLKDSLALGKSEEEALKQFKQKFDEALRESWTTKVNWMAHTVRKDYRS
Sequence of PI3K β (P27986 whole entry partner): as the sequence (P27986 whole entry partner) above

For the compound `Cc1cc2ncc(C(=O)N3CCOCC3)n2cc1-c1ccc2oc(N)nc2c1`, the pIC50 (at PI3K γ (read-out: PI3K δ IC50); in assay [1]; against PI3K β; against PI3K α) was less than 5.00 in each case.
For the compound `Nc1nc2cccc(-c3ccc4ncc(C(=O)N5CCOCC5)n4c3)c2s1`, the pIC50 (commonly the negative decadic logarithm of the IC50, by convention in mol/L) on PI3K γ (read-out: PI3K δ IC50) was less than 5.00; in assay [1], less than 5.00; against PI3K β, less than 5.00; on PI3K α it was greater than 5.00.
Take `CC1(C)COCCN1C(=O)c1cnc2ccc(-c3ccc4oc(N)nc4c3)cn12`: the pIC50 at PI3K γ (read-out: PI3K δ IC50) was less than 5.00; in assay [1] it was less than 5.00; on PI3K β it was less than 5.00; against PI3K α it was greater than 6.00.
With `COCCN1CCN(c2cnc3ccc(-c4ccc5oc(N)nc5c4)cc3n2)CC1`, the pIC50 was greater than 6.00 at PI3K γ (read-out: PI3K δ IC50), less than 5.00 in assay [1], greater than 6.00 against PI3K β and greater than 7.00 against PI3K α.
Consider `C[C@H]1CN(c2cnc3cccc(-c4ccc5nc(N)oc5c4)c3n2)CCN1`, for which the pIC50 is less than 5.00 on PI3K γ (read-out: PI3K δ IC50), less than 5.00 in assay [1], greater than 5.00 at PI3K β and less than 5.00 against PI3K α.
Turning to `Nc1nc2cc(-c3ccc4ncc(C(=O)N5CC(F)(F)C5)n4c3)ccc2o1`, the pIC50 at PI3K γ (read-out: PI3K δ IC50) was greater than 7.00; in assay [1], less than 5.00; at PI3K β, less than 5.00; on PI3K α, greater than 7.00.
For the compound `C[C@H]1CN(c2cnc3ccc(-c4cccc5c(N)noc45)cc3n2)CCN1`, the pIC50 (on PI3K γ (read-out: PI3K δ IC50); in assay [1]; on PI3K β; on PI3K α) was less than 5.00 throughout.
As for `Nc1nc2cc(-c3ccc4ncc(C(=O)N5CC[C@H](n6cccn6)C5)n4c3)ccc2o1`, the negative-log IC50 (pIC50) on PI3K γ (read-out: PI3K δ IC50) was greater than 6.00; in assay [1], greater than 6.00; against PI3K β it was greater than 5.00; on PI3K α it was greater than 7.00.
As to `Nc1nc2cc(-c3ccc4ncc(C(=O)N5CC(n6cccn6)C5)n4c3)ccc2o1`, the pIC50 on PI3K γ (read-out: PI3K δ IC50) is greater than 6.00; in assay [1] it was greater than 5.00; at PI3K β, less than 5.00; at PI3K α, greater than 7.00.
The matching figures for `Nc1nc2cc(-c3ccc4ncc(C(=O)N5CCOCC5)n4c3)c(Cl)cc2o1`: less than 5.00, less than 5.00, less than 5.00 and greater than 5.00.
Regarding `Nc1nc2cc(-c3ccc4ncc(C(=O)N5CCC(N)CC5)n4c3)ccc2o1`, the pIC50 on PI3K γ (read-out: PI3K δ IC50) is less than 5.00; in assay [1], less than 5.00; against PI3K β, greater than 6.00; on PI3K α, greater than 7.00.
Turning to `Nc1nc2cccc(-c3ccc4ncc(C(=O)N5CCOCC5)n4c3)c2o1`, the negative logarithm of the IC50 (pIC50) on PI3K γ (read-out: PI3K δ IC50) was less than 5.00; in assay [1], less than 5.00; against PI3K β it was less than 5.00; at PI3K α, greater than 6.00.
Turning to `Cc1cc(-c2ccc3oc(N)nc3c2)cc2c(C(=O)N3CCCC3)cnn12`, the pIC50 is greater than 6.00 on PI3K γ (read-out: PI3K δ IC50), greater than 6.00 in assay [1], greater than 5.00 against PI3K β and greater than 7.00 against PI3K α.
As for `CC(C)N1CCC(n2cnc3ccc(-c4cncc(NS(=O)(=O)c5ccc(F)cc5F)c4)cc3c2=O)CC1`, the pIC50 at PI3K γ (read-out: PI3K δ IC50) is greater than 6.00; in assay [1], greater than 5.00; against PI3K β, greater than 5.00; at PI3K α, greater than 6.00.
As for `Nc1nc2cc(-c3ccc4sc(N)nc4c3)cc(F)c2o1`, the negative logarithm of the IC50 (pIC50) on PI3K γ (read-out: PI3K δ IC50) is greater than 6.00; in assay [1] it was less than 5.00; against PI3K β, greater than 6.00; against PI3K α, greater than 5.00.
For `Nc1nc2cc(-c3ccc4ncc(C(=O)N5CC[C@@H](O)C5)n4c3)ccc2o1`, the pIC50 on PI3K γ (read-out: PI3K δ IC50) is greater than 7.00; in assay [1], greater than 5.00; at PI3K β, greater than 5.00; on PI3K α it was greater than 7.00.
Consider `Nc1nc2cc(-c3ccc4ncc(C(=O)N5CCC5)n4c3)ccc2o1`, for which the pIC50 is greater than 7.00 on PI3K γ (read-out: PI3K δ IC50), greater than 5.00 in assay [1], greater than 5.00 against PI3K β and greater than 7.00 at PI3K α.
On to `Nc1nc2cc(-c3ccc4ncc(C(=O)N5CCC(O)C5)n4c3)ccc2o1` (centres unmarked), for which the pIC50 in assay [1] was greater than 5.00; on PI3K β, greater than 5.00; against PI3K α it was greater than 7.00.
In the case of `CO[C@@H]1CCN(C(=O)c2cnc3ccc(-c4ccc5oc(N)nc5c4)cn23)C1`, the pIC50 on PI3K γ (read-out: PI3K δ IC50) is greater than 6.00; in assay [1], less than 5.00; at PI3K β, less than 5.00; against PI3K α it was greater than 7.00.
With `O=C(c1cnc2ccc(-c3cnc(Cl)c4[nH]ncc34)cn12)N1CCOCC1`, the pIC50 at PI3K γ (read-out: PI3K δ IC50) is less than 5.00; in assay [1], less than 5.00; at PI3K β, less than 5.00; against PI3K α it was greater than 6.00.
`CS(=O)(=O)Nc1cccc(-c2ccc3ncc(C(=O)N4CCOCC4)n3c2)c1`: the pIC50 (on PI3K γ (read-out: PI3K δ IC50); in assay [1]; on PI3K β; against PI3K α) was less than 5.00 in each case.
As for `Nc1n[nH]c2cc(-c3ccc4ncc(C(=O)N5CCOCC5)n4c3)ccc12`, the pIC50 (on PI3K γ (read-out: PI3K δ IC50); in assay [1]; against PI3K β; on PI3K α) was less than 5.00 in each case.
`Nc1nc2cc(-c3ccc4ncc(N5CCNC(C(F)F)C5)nc4c3)ccc2o1` (centres unmarked): the pIC50 on PI3K γ (read-out: PI3K δ IC50) is greater than 6.00; in assay [1], greater than 5.00; against PI3K β it was greater than 6.00; at PI3K α, greater than 7.00.
Consider `COc1ccc(-c2ccc3ncc(C(=O)N4CCOCC4)n3c2)cc1NS(=O)(=O)c1ccccc1`, for which the pIC50 at PI3K γ (read-out: PI3K δ IC50) was greater than 5.00; in assay [1], less than 5.00; against PI3K β, less than 5.00; against PI3K α it was greater than 5.00.
For the compound `Nc1nc2cc(-c3cc(F)c4ncc(C(=O)N5CCOCC5)n4c3)ccc2o1`, the pIC50 on PI3K γ (read-out: PI3K δ IC50) is less than 5.00; in assay [1], less than 5.00; at PI3K β, less than 5.00; at PI3K α, greater than 5.00.
With `COc1ncc(-c2ccc3ncc(C(=O)N4CCOCC4)n3c2)cc1NS(=O)(=O)c1ccccc1`, the negative logarithm of the IC50 (pIC50) is greater than 6.00 on PI3K γ (read-out: PI3K δ IC50), greater than 6.00 in assay [1], less than 5.00 at PI3K β and greater than 7.00 against PI3K α.
In the case of `CN1CCC(n2cnc3ccc(-c4cnc(Cl)c(NS(C)(=O)=O)c4)cc3c2=O)CC1`, the pIC50 on PI3K γ (read-out: PI3K δ IC50) was less than 5.00; in assay [1], greater than 6.00; at PI3K β, greater than 5.00; against PI3K α it was greater than 7.00.
Take `CS(=O)(=O)Nc1cc(-c2ccc3ncc(C(=O)N4CCOCC4)n3c2)ccc1Cl`: the pIC50 is less than 5.00 at PI3K γ (read-out: PI3K δ IC50), less than 5.00 in assay [1], less than 5.00 against PI3K β and greater than 5.00 against PI3K α.
Consider `COC1CN(C(=O)c2cnc3ccc(-c4ccc5oc(N)nc5c4)cn23)C1`, for which the pIC50 was greater than 7.00 at PI3K γ (read-out: PI3K δ IC50), greater than 5.00 in assay [1], greater than 5.00 on PI3K β and greater than 7.00 against PI3K α.
Regarding `CNS(=O)(=O)c1cccc(-c2ccc3ncc(C(=O)N4CCOCC4)n3c2)c1`, the pIC50 (at PI3K γ (read-out: PI3K δ IC50); in assay [1]; at PI3K β; at PI3K α) was less than 5.00 throughout.
For `Nc1nc2cc(-c3ccc4ncc(N5CCN(CC6CC6)CC5=O)nc4c3)ccc2o1`, the pIC50 was less than 5.00 at PI3K γ (read-out: PI3K δ IC50), less than 5.00 in assay [1], less than 5.00 against PI3K β and greater than 5.00 on PI3K α.
Regarding `Nc1nc2cc(-c3ccc4c(N)n[nH]c4c3)ccc2o1`, the pIC50 on PI3K γ (read-out: PI3K δ IC50) is greater than 6.00; in assay [1], less than 5.00; against PI3K β, greater than 5.00; at PI3K α it was greater than 5.00.
Take `C[C@H]1CN(c2cnc3scc(-c4ccc5oc(N)nc5c4)c3c2)CCN1`: the pIC50 (at PI3K γ (read-out: PI3K δ IC50); in assay [1]; at PI3K β; against PI3K α) was less than 5.00 in each case.
Consider `CNc1noc2cc(-c3ccc4ncc(C(=O)N5CCOCC5)n4c3)ccc12`, for which the pIC50 was greater than 5.00 at PI3K γ (read-out: PI3K δ IC50), less than 5.00 in assay [1], less than 5.00 at PI3K β and greater than 5.00 against PI3K α.
Take `Nc1nc2cc(-c3ccc4ncc(C(=O)NCCN5CCCC5)n4c3)ccc2o1`: the negative-log IC50 (pIC50) at PI3K γ (read-out: PI3K δ IC50) is less than 5.00; in assay [1], greater than 6.00; at PI3K β, greater than 5.00; at PI3K α, greater than 6.00.
Take `CN1CCC(Nc2ncnc3ccc(-c4ccc5oc(N)nc5c4)nc23)CC1`: the pIC50 was greater than 6.00 on PI3K γ (read-out: PI3K δ IC50), greater than 6.00 in assay [1], greater than 6.00 at PI3K β and greater than 7.00 at PI3K α.
Regarding `COc1ncc(-c2ccc3ncc(C(=O)N4CCOCC4)n3c2)cc1NS(=O)(=O)c1cccnc1`, the pIC50 (on PI3K γ (read-out: PI3K δ IC50); in assay [1]; at PI3K β; at PI3K α) was greater than 7.00 throughout.
`Nc1nc2cc(-c3ccc4ncn(CCCN5CCCC5)c(=O)c4c3)ccc2o1`: the pIC50 was less than 5.00 at PI3K γ (read-out: PI3K δ IC50), greater than 5.00 in assay [1], greater than 5.00 at PI3K β and greater than 6.00 at PI3K α.
On to `Cc1c(-c2ccc3oc(N)nc3c2)ccc2ncc(N3CC(N4CCNCC4)C3)nc12`, for which the negative logarithm of the IC50 (pIC50) was less than 5.00 in assay [1], less than 5.00 against PI3K β and greater than 7.00 on PI3K α.
For the compound `CN(C)CC(=O)N1CCN(c2cnc3ccc(-c4ccc5oc(N)nc5c4)cc3n2)CC1` [drawing 407], the pIC50 (at PI3K γ (read-out: PI3K δ IC50); in assay [1]) was greater than 6.00 in each case.
On to `CC1CN(C(=O)c2cnc3ccc(-c4ccc5oc(N)nc5c4)cn23)CCO1` (centres unmarked), for which the pIC50 is less than 5.00 in assay [1], greater than 5.00 on PI3K β and greater than 7.00 on PI3K α.
Consider `C[C@@H]1CN(c2cnc3ccc(-c4ccc5oc(N)nc5c4)nc3n2)CCN1`, for which the negative-log IC50 (pIC50) at PI3K γ (read-out: PI3K γ IC50) is greater than 6.00; against PI3K β, greater than 7.00; at PI3K α, greater than 7.00.
In the case of `C[C@@H]1CN(C2CN(c3cnc4ccc(-c5ccc6oc(N)nc6c5)nc4n3)C2)CCN1C`, the pIC50 on PI3K γ (read-out: PI3K γ IC50) was greater than 5.00; at PI3K β, less than 5.00; against PI3K α it was greater than 7.00.
Turning to `CN1CCN(c2cnc3ccc(-c4ccc5oc(N)nc5c4)cc3n2)C(=O)C1`, the pIC50 is less than 5.00 on PI3K γ (read-out: PI3K δ IC50) and greater than 5.00 against PI3K α.
On to `COc1ncc(-c2ccc3ncn(C4CCN(C)CC4)c(=O)c3c2)cc1NS(C)(=O)=O`, for which the pIC50 was greater than 5.00 on PI3K γ (read-out: PI3K δ IC50), greater than 6.00 against PI3K β and greater than 7.00 on PI3K α.
